Measurements published in patent US10005767B2, “Compositions and methods for inhibition of the JAK pathway” (Rigel Pharmaceuticals, Inc., priority 2009, dated 2018).
Counter-ions that a name gives are not always drawn.

system: human primary T-cells, IL-2 stimulated proliferation (JAK-1 and JAK-3 dependent; reported as JAK3 activity); assay: Human primary T-cell proliferation stimulated by IL-2 (Example 3); type: cell-based; settings: Homo sapiens, T-cell, tested under conditions described in Example 3 (IL-2 stimulated human primary T-cell proliferation); read-out: ability to inhibit JAK3 activity, IC50 range (Table V)
Procedure, shortened: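 Peripheral-blood human T-cells pre-activated via TCR/CD28, IL-2-starved overnight, then cultured 72 h at 37 °C with compound in Yssel's medium containing IL-2 (80 U/mL in cell suspension). Proliferation read as viable-cell ATP by CellTiter-Glo luminescence; reduction versus control taken as JAK pathway inhibition.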

| SMILES | IC50 [nM] |
| --- | --- |
| Cc1cnc(Nc2ccc(N3CCC(C)(C)CC3)nc2)nc1Nc1ccc2oc(=O)[nH]c2c1 [II-60, 5-(2-(6-(4,4-dimethylpiperidin-1-yl)pyridin-3-ylamino)-5-methylpyrimidin-4-ylamino)benzo[d]oxazol-2(3H)-one] | < 500 |
| Cc1cc(Nc2ncc(C)c(Nc3ccc4oc(=O)[nH]c4c3)n2)ccc1C(=O)NC1CCC1 [Compound I-190, N-Cyclobutyl-2-methyl-4-[5-methyl-4-(2-oxo-2,3-dihydro-benzooxazol-5-ylamino)-pyrimidin-2-ylamino]-benzamide] | < 500 |
| Cc1cnc(Nc2ccc(OC(F)F)c(CF)c2)nc1Nc1ccc2oc(=O)[nH]c2c1 [Compound I-433, 5-(2-(4-(difluoromethoxy)-3-(fluoromethyl)phenylamino)-5-methylpyrimidin-4-ylamino)benzo[d]oxazol-2(3H)-one formate salt] | < 500 |
| Cc1cnc(Nc2ccc(C(C)(C)C)cc2)nc1Nc1ccc2oc(=O)[nH]c2c1 [Compound I-420, 5-(2-(4-tert-butylphenylamino)-5-methylpyrimidin-4-ylamino)benzo[d]oxazol-2(3H)-one] | < 500 |
| CCOc1ccc(Nc2ncc(C)c(Nc3ccc4oc(=O)[nH]c4c3)n2)cc1Cl [Compound I-194, 5-[2-(3-Chloro-4-ethoxy-phenylamino)-5-methyl-pyrimidin-4-ylamino]-3H-benzooxazol-2-one] | < 500 |
| Cc1cnc(Nc2cnc3c(c2)OCC(=O)N3)nc1Nc1ccc2oc(=O)[nH]c2c1 [IV-46, 5-methyl-N4-(2-oxo-2,3-dihydro-1,3-benzoxazol-5-yl)-N2-(2H-pyrido[3,2-b][1,4]oxazin-3 (4H)-one-7-yl)-2,4-pyrimidinediamine] | < 500 |
| Cc1cnc(Nc2cnc(N3CC4CC3CN4)c(F)c2)nc1Nc1ccc2oc(=O)[nH]c2c1 (stereo not shown) [II-51, 5-{2-[6-(2,5-Diaza-bicyclo[2.2.1]hept-2-yl)-5-fluoro-pyridin-3-ylamino]-5-methyl-pyrimidin-4-ylamino}-3H-benzooxazol-2-one] | < 500 |
| Cc1cnc(Nc2ccc(C#N)cc2)nc1Nc1ccc2oc(=O)[nH]c2c1 [Compound I-27, N4-(benzo[d]oxazol-2(3H)-on-5-yl)-N2-(4-cyanophenyl)-5-methylpyrimidine-2,4-diamine] | < 500 |
| Cc1cnc(Nc2ccc(NS(C)(=O)=O)cc2)nc1Nc1ccc2[nH]c(=O)[nH]c2c1 [Compound I-50, N2-(4-(methylsulfonylamino)phenyl)-N4-(1H-benzo[d]imidazol-2(3H)-on-5-yl)-5-methylpyrimidine-2,4-diamine] | < 500 |
| Cc1cnc(Nc2cc(C)c(OCCN3CCOCC3)c(C)c2)nc1Nc1ccc2oc(=O)[nH]c2c1 [Compound I-459, 5-(2-(3,5-dimethyl-4-(2-morpholinoethoxy)phenylamino)-5-methylpyrimidin-4-ylamino)benzo[d]oxazol-2(3H)-one] | < 500 |

same assay, conditions: tested under conditions described in Example 3 (IL-2 stimulated human primary T-cell proliferation); read-out: ability to inhibit JAK3 activity, IC50 range (Table V)

| SMILES | IC50 [nM] |
| --- | --- |
| Cn1c(=O)oc2cc(Nc3nc(Nc4cccc(S(C)(=O)=O)c4)ncc3F)ccc21 [Compound I-59, N2-((3-methylsulfonyl)phenyl)-N4-(3-methyl-2-oxo-2,3-dihydrobenzo[d]oxazol-6-yl)-5-fluoropyrimidine-2,4-diamine] | < 500 |
| Cc1cnc(Nc2cc(F)cc(C(F)(F)F)c2)nc1Nc1ccc2oc(=O)[nH]c2c1 [Compound I-162, 5-[2-(3-Fluoro-5-trifluoromethyl-phenylamino)-5-methyl-pyrimidin-4-ylamino]-3H-benzooxazol-2-one triflouroacetate salt] | > 10000 |
| Cc1cnc(Nc2ccc(OCC(=O)OC(C)C)cc2)nc1Nc1ccc2oc(=O)[nH]c2c1 [Compound I-317, N2-[4-(isopropoxycarbonylmethoxy)]phenyl-5-methyl-N4-(2-oxo-2,3-dihydro-1,3-benzoxazol-5-yl)-2,4-pyrimidinediamine] | < 500 |
| CCNC(=O)Nc1ccc(Nc2ncc(C)c(Nc3ccc4oc(=O)[nH]c4c3)n2)cc1 [Compound I-318, N2-[4-(ethylaminocarbonylamino)]phenyl-5-methyl-N4-(2-oxo-2,3-dihydro-1,3-benzoxazol-5-yl)-2,4-pyrimidinediamine] | < 500 |
| Cc1ccc(Nc2ncc(F)c(Nc3ccc4oc(=O)n(C)c4c3)n2)cc1NS(C)(=O)=O [Compound I-85, N2-((3-methylsulfonylamino-4-methyl)phenyl)-N4-(3-methyl-2-oxo-2,3-dihydrobenzo[d]oxazol-5-yl)-5-fluoropyrimidine-2,4-diamine] | 500 to 5000 |
| Cn1c(=O)n(C)c2cc(Nc3nc(Nc4cccc(S(N)(=O)=O)c4)ncc3F)ccc21 [Compound I-39, N4-(1,3-dimethylbenzimidazolin-2-on-5-yl)-N2-((3-aminosulfonyl)phenyl)-5-fluoropyrimidine-2,4-diamine] | < 500 |
